Marks after values point to notes of the source that are not given here.

The source of these data is patent US10092589B2, “Anti-tumor agent containing anti-tumor platinum complex, and anti-tumor effect enhancer” (Taiho Pharmaceutical Company Limited, priority 2014, dated 2018).

Data set [1] can be described thus: Carboplatin tolerability in mice with no cancer (Reference Example 3). The conditions noted are these: tail vein, Day 1. The data set is classed as in vivo, BALB/cA Jcl-nu mice. How it is done:
To BALB/cA Jcl-nu mice with no cancer (5 mice in each group), carboplatin (CBDCA) was administered at 50, 70, 100, 140, or 200 mg/kg/day through the tail vein on Day 1. In the groups treated with the doses of 140 mg/kg/day or more, strong body weight reductions of 20% or more and death cases were observed. The recommended dose of carboplatin for mice was thus 100 mg/kg/day.

In data set [2] the test system is human lung cancer cell line (Lu-134). In words: Lu-134 xenograft, FTD·TPI combination drug and carboplatin (Example 2). The data set is classed as in vivo. The note with it: Day 29, tail vein Day 1 and Day 8. The procedure:
(§1) As an index of the anti-tumor effect, the TVs on Days 5, 8, 11, 15, 19, 22, 26, and 29 were calculated in each group. In accordance with the following equation, the relative tumor volume (RTV) to that on Day 0 was calculated and compared with the RTV of the untreated group (control).
(§2) The tumor growth inhibition rate (IR) on Day 29 on the basis of RTV values was calculated in accordance with the following equation. IR(%)=[1−(mean RTV value of treated group)/(mean RTV value of control group)]×100
In a similar manner to that in Example 1, to BALB/cA Jcl-nu mice to which a human lung cancer cell line (Lu-134) had been transplanted, the FTD⋅TPI combination drug or carboplatin alone, or a combination of the two was administered, and enhancement of the anti-tumor effect was examined.
(§3) The FTD⋅TPI combination drug (a mixture of FTD and TPI at a molar ratio of 1:0.5) was prepared for administration at doses of 75 and 150 mg/kg/day in terms of FTD. Carboplatin (Paraplatin inj., Bristol-Myers) was prepared for administration at doses of 50 and 100 mg/kg/day. The FTD⋅TPI combination drug was orally administered on Days 1 to 14 consecutively, and carboplatin was administered through the tail vein on Day 1 and Day 8. In the combination administration groups, the doses and administration schedules of the FTD⋅TPI combination drug and carboplatin were the same as those of the corresponding monotherapy groups. The TV and body weight of each group were measured on Days 4, 8, 11, 15, 19, 22, 26, and 29, and the anti-tumor effect and side effects were evaluated.

The nature of data set [3]: Oxaliplatin tolerability in mice with no cancer (Reference Example 4). The class given is in vivo, BALB/cA Jcl-nu mice. The conditions noted are these: tail vein, Day 1 and Day 8. The procedure:
To BALB/cA Jcl-nu mice with no cancer (4 mice in each group), oxaliplatin (l-OHP) was administered at 10, 12, 15, or 22.5 mg/kg/day through the tail vein on Day 1 and Day 8. In the groups treated with the doses of 15 mg/kg/day or more, strong body weight reductions of 20% or more were observed. The recommended dose of oxaliplatin for mice was thus 12 mg/kg/day.

Data set [4] deals with human colon cancer cell strain (KM20C). In words: KM20C xenograft, FTD·TPI combination drug and oxaliplatin (Example 3-1). The class given is in vivo. The note with it: Day 15, tail vein Day 1 and Day 8. The procedure:
as §1
IR(%)=[1−(mean RTV value of treated group)/(mean RTV value of control group)]×100
In a similar manner to that in Example 1, to BALB/cA Jcl-nu mice to which a human colon cancer cell strain (KM20C) had been transplanted, the FTD⋅TPI combination drug or oxaliplatin alone, or a combination of the two was administered, and enhancement of the anti-tumor effect was examined.
as §3, with “FTD. Oxaliplatin (Eloxatin, Sanofi-Aventis)” for “FTD. Carboplatin (Paraplatin inj., Bristol-Myers)”, “of 6” for “of 50”, “and 12” for “and 100”, “and oxaliplatin” for “and carboplatin”, “4, 7, 10, and” for “4, 8, 11,”, “15,” for “15, 19, 22, 26, and 29,”

Data set [5] relates to human colon cancer cell strain (SW48). In words: SW48 xenograft, FTD·TPI combination drug and oxaliplatin (Example 3-2). The data set is classed as in vivo. The note with it: tail vein Day 1 and Day 8; for IR (tumor growth inhibition rate) / RTV (mean ± SD): Day 29. How it is done: In a similar manner to that in Example 1, to BALB/cA Jcl-nu mice to which a human colon cancer cell strain (SW48) had been transplanted, the FTD⋅TPI combination drug or oxaliplatin alone, or a combination of the two was administered, and enhancement of the anti-tumor effect was examined.
(§4) The FTD⋅TPI combination drug (a mixture of FTD and TPI at a molar ratio of 1:0.5) was prepared for administration at a dose of 150 mg/kg/day in terms of FTD. Oxaliplatin (Eloxatin, Sanofi-Aventis) was prepared for administration at doses of 7 and 12 mg/kg/day. The FTD⋅TPI combination drug was orally administered on Days 1 to 14 consecutively, and oxaliplatin was administered through the tail vein on Day 1 and Day 8. In the combination administration groups, the doses and administration schedules of the FTD⋅TPI combination drug and oxaliplatin were the same as those of the corresponding monotherapy groups. The TV and body weight of each group were measured on Days 3, 7, 11, 15, 18, 22, 25, and 29, and the anti-tumor effect and side effects were evaluated.
The number of days that elapsed until the tumor volume reached 5 times that on Day 0 (RTV5) was determined, and the growth delay effect was evaluated (Cancer Chemother Pharmacol 57: 709-718, 2006; Int J Radiat Oncol Biol Phys 86 (3): 469-76, 2013).

Data set [6] deals with human gastric cancer cell line (MKN74). In words: MKN74 xenograft, FTD·TPI combination drug and oxaliplatin (Example 3-3). The class given is in vivo. The note with it: tail vein Day 1 and Day 8; for IR (tumor growth inhibition rate) / RTV (mean ± SD): Day 29. How it is done: In a similar manner to that in Example 1, to BALB/cA Jcl-nu mice to which a human gastric cancer cell line (MKN74) was transplanted, the FTD⋅TPI combination drug or oxaliplatin alone, or a combination of the two was administered, and enhancement of the anti-tumor effect was examined.
as §4
(§5) The number of days that elapsed until the tumor volume reached 5 times that on Day 0 (RTV5) was determined, and the growth delay effect was evaluated.

Data set [7] concerns human gastric cancer cell line (MKN74/5-FU), 5-FU resistant. The experiment in a line: MKN74/5-FU xenograft, FTD·TPI combination drug and oxaliplatin (Example 3-4). The class given is in vivo. The note with it: tail vein Day 1 and Day 8; for IR (tumor growth inhibition rate) / RTV (mean ± SD): Day 29. The procedure: In a similar manner to that in Example 1, to BALB/cA Jcl-nu mice to which a human gastric cancer cell line (MKN74/5-FU) that is a 5-FU resistant cell line had been transplanted, the FTD⋅TPI combination drug or oxaliplatin alone, or a combination of the two was administered, and enhancement of the anti-tumor effect was examined.
as §4, §5

A short description of data set [8]: Cisplatin tolerability (body weight) in KM20C-transplanted mice (Reference Example 2). The class given is in vivo, BALB/cA Jcl-nu mice. How it is done:
To BALB/cA Jcl-nu mice (8 mice in each group) to which a human colon cancer cell line KM20C had been transplanted, cisplatin was administered through the tail vein on Day 1 and Day 8. At a dose of 7 mg/kg/day, body weight reduction was 20% or less, and this dose was feasible. Accordingly, the recommended dose of cisplatin (CDDP) for mice was 7 mg/kg/day.

In data set [9] the test system is human lung cancer cell line (Lu-134). In words: Lu-134 xenograft, FTD·TPI combination drug and cisplatin (Example 1). The class given is in vivo. The note with it: Day 29, tail vein Day 1 and Day 8. How it is done:
A human lung cancer cell line (Lu-134) was transplanted to the right chest of 5 to 6-week-old BALB/cA Jcl-nu mice. After the tumor transplantation, the long diameter (mm) and the short diameter (mm) of the tumor were measured, and the tumor volume (TV) was calculated.
The FTD⋅TPI combination drug (a mixture of FTD and TPI at a molar ratio of 1:0.5) was prepared for administration at doses of 75 and 150 mg/kg/day in terms of FTD. Cisplatin (Randa inj., Nippon Kayaku Co., Ltd) was prepared for administration at doses of 3.5 and 7 mg/kg/day. The FTD⋅TPI combination drug was orally administered on Days 1 to 14 consecutively, and cisplatin was administered through the tail vein on Day 1 and Day 8. In the combination administration groups, the doses and administration schedules of the FTD⋅TPI combination drug and cisplatin were the same as those of the corresponding monotherapy groups.
as §1
TV(mm^3)=(long diameter×short diameter^2)/2 RTV=(TV on Day 29)/(TV on Day 0)
as §2
To evaluate body weight reduction as an index of side effects, body weights were measured in each group on each measurement day.

With `N.N.O=C([O-])C1(C(=O)[O-])CCC1.[Pt+2]` [Carboplatin (CBDCA), cis-diammine (1,1-cyclobutanedicarboxylato)-platinum (II)], in data set [1] (doses of 140 mg/kg/day or more), the body weight reductions is at least 20% and the death entry is “death cases”. Moreover, the “recommended dose for mice” value in data set [1] is listed as 100 mg/kg/day. For the same compound, in [2] (50 mg/kg/day), the “IR (tumor growth inhibition rate)” value is reported as 25.3% and the “RTV (mean ± SD)” value is given as 26.86 ± 2.44. Moreover, in [2] (100 mg/kg/day), the “IR (tumor growth inhibition rate)” value amounted to 57.2% and the “RTV (mean ± SD)” value is 15.40 ± 4.38.

Take `O=C1[O][Pt]2([NH][C@@H]3CCCC[C@H]3[NH]2)[O]C1=O` [Oxaliplatin (l-OHP), [(1R,2R)-cyclohexane-1,2-diamine](ethanedioato-O,O′)platinum(II)]: the body weight reductions in data set [3] (doses of 15 mg/kg/day or more) is at least 20%. Further, in data set [3], the “recommended dose for mice” value amounted to 12 mg/kg/day. Moreover, the “IR (tumor growth inhibition rate)” value in data set [4] (6 mg/kg/day) is listed as 36.4%; in [4] (12 mg/kg/day), 55.0%; in data set [5] (7 mg/kg/day), 22.1%; in data set [5] (12 mg/kg/day) it was 36.7%; in data set [6] (7 mg/kg/day), 20.7%; in [6] (12 mg/kg/day), 35.8%. In addition, the “IR (tumor growth inhibition rate)” value in data set [7] (7 mg/kg/day) was found to be 33.7%; in data set [7] (12 mg/kg/day), 40.5%. The “RTV (mean ± SD)” value in data set [4] (6 mg/kg/day) is given as 6.99 ± 0.32; in [4] (12 mg/kg/day), 4.94 ± 0.53; in [5] (7 mg/kg/day) it was 47.63 ± 4.33; in data set [5] (12 mg/kg/day) it was 38.72 ± 3.69*^,#; in [6] (7 mg/kg/day), 12.67 ± 0.74; in [6] (12 mg/kg/day), 10.25 ± 0.87. The results for the “RTV (mean ± SD)” value in data set [7] (7 mg/kg/day) and in data set [7] (12 mg/kg/day) were 11.23 ± 1.60 and 10.08 ± 1.77, respectively. The “RTV5 (the period, RTV reaches 5)” value is on record as 8.9 ± 0.4 days in [5] (7 mg/kg/day); 10.0 ± 0.8^$ days in data set [5] (12 mg/kg/day); 15.8 ± 0.6^$ days in data set [6] (7 mg/kg/day); 18.5 ± 0.8^$ days in data set [6] (12 mg/kg/day); 18.6 ± 1.4^$ days in data set [7] (7 mg/kg/day); 20.1 ± 1.3^$ days in data set [7] (12 mg/kg/day).

Take `N.N.[Cl][Pt][Cl]` [Cisplatin (CDDP), (SP-4-2)-diamminedichloroplatinum]: in data set [8] (7 mg/kg/day, tail vein Day 1 and Day 8), the body weight reduction is at most 20%. For the same compound, the “recommended dose for mice” value in [8] (tail vein, Day 1 and Day 8) was 7 mg/kg/day. In addition, the “IR (tumor growth inhibition rate)” value is given as 21.0% in [9] (3.5 mg/kg/day) and 49.6% in [9] (7.0 mg/kg/day). The “RTV (mean ± SD)” value in data set [9] (3.5 mg/kg/day) was determined as 29.12 ± 2.79; in data set [9] (7.0 mg/kg/day) it was 18.56 ± 4.64.
